Patent US11976300B2, “Use of water-soluble realgar solid dispersion in preparation of erythroid differentiation inducer for bone marrow hematopoietic stem cells and/or bone marrow hematopoietic progenitor cells” (Institute of Basic Medical Sciences Chinese Academy of …, priority 2018, dated 2024)

Test: Evaluation of water solubility (appearance of water dispersion)
Type: physicochemical
Conditions: 1.500 g e-As4S4 of Embodiment 5 or 100 mg r-As4S4 powder in 10 mL ddH2O; FIG. 1
Protocol: 1.500 grams of e-As4S4 of Embodiment 5 and 100 mg of the r-As4S4 powder were weighed and added in 10 mL of double distilled water (ddH2O), respectively to obtain the water dispersion solution of e-As4S4 and r-As4S4.

Structure (SMILES): S1[As]2S[As]3S[As]2S[As]13 [r-As4S4, As4S4]
- dissolution in ddH2O (appearance of the suspension): hardly to dissolve in water
